Laboratory results reported in ChEMBL document CHEMBL4130462, “Natural isoflavone biochanin A as a template for the design of new and potent 3-phenylquinolone efflux inhibitors against Mycobacterium avium” (Eur J Med Chem, 2017).
In brackets after ≈: the same amount, converted by molar mass.

How the values were obtained:
[1] = test system: Mycobacterium avium; conditions: 104 mc'2 3
[2] = test system: Mycobacterium avium; conditions: isolate MAV3
[3] = test system: Mycobacterium avium; conditions: 104
[4] = test system: Mycobacterium avium; conditions: isolate MAV3; remark: listed apart in the source
[5] = test system: Mycobacterium avium; conditions: 104; remark: listed apart in the source
[6] = test system: Mycobacterium avium; conditions: isolate MAV2
[7] = test system: Mycobacterium avium subsp. avium ATCC 25291
[8] = test system: Mycobacterium avium; conditions: isolate MAV1
[9] = test system: Mycobacterium avium; conditions: 72 h
Description: Antimycobacterial activity against Mycobacterium avium 104 assessed as reduction in bacterial viability incubated for 3 days by MTT assay

[10] = test system: Mycobacterium avium; conditions: isolate MAV4
[11] = test system: Mycobacterium avium subsp. avium ATCC 25291; remark: listed apart in the source
[12] = test system: Mycobacterium avium; conditions: 104 mc'2 4
[13] = test system: Mycobacterium avium subsp. avium ATCC 25291; remark: listed apart in the source
[14] = test system: Mycobacterium avium subsp. avium ATCC 25291; remark: listed apart in the source
[15] = test system: Mycobacterium avium; conditions: 104 mc'2 4; remark: listed apart in the source
[16] = test system: Mycobacterium avium; conditions: 104 mc'2 3; remark: listed apart in the source
[17] = test system: Mycobacterium avium; conditions: 104 mc'2 4; remark: listed apart in the source
[18] = test system: Mycobacterium avium; conditions: isolate MAV2; remark: listed apart in the source
Description: Inhibition of multidrug resistance efflux pump in Mycobacterium avium isolate MAV2 assessed as potentiation of ofloxacin-induced antibacterial activity by measuring ofloxacin MIC at 1/2 MIC incubated for 3 days by MTT assay

[19] = test system: Mycobacterium avium; conditions: isolate MAV4; remark: listed apart in the source
[20] = test system: Mycobacterium avium; conditions: isolate MAV2; remark: listed apart in the source
Description: Inhibition of multidrug resistance efflux pump in Mycobacterium avium isolate MAV2 assessed as potentiation of ofloxacin-induced antibacterial activity by measuring ofloxacin MIC at 1/4 MIC incubated for 3 days by MTT assay

[21] = test system: Mycobacterium avium; conditions: 104 mc'2 3; remark: listed apart in the source
[22] = test system: Mycobacterium avium; conditions: isolate MAV2; remark: listed apart in the source
[23] = test system: Mycobacterium avium subsp. avium ATCC 25291; remark: listed apart in the source
Description: Inhibition of multidrug resistance efflux pump in Mycobacterium avium ATCC 25291 assessed as potentiation of ethidium bromide-induced antibacterial activity by measuring ethidium bromide MIC at 1/2 MIC incubated for 3 days by MTT assay (Rvb = 50 ug/ml)

[24] = test system: Mycobacterium avium; conditions: isolate MAV4; remark: listed apart in the source
Description: Inhibition of multidrug resistance efflux pump in Mycobacterium avium isolate MAV4 assessed as potentiation of ethidium bromide-induced antibacterial activity by measuring ethidium bromide MIC at 1/4 MIC incubated for 3 days by MTT assay

[25] = test system: Mycobacterium avium; conditions: isolate MAV2; remark: listed apart in the source
Description: Inhibition of multidrug resistance efflux pump in Mycobacterium avium isolate MAV2 assessed as potentiation of clarithromycin -induced antibacterial activity by measuring clarithromycin MIC at 1/2 MIC incubated for 3 days by MTT assay (Rvb = >1024 ug/ml)

[26] = test system: Mycobacterium avium; conditions: isolate MAV3; remark: listed apart in the source
[27] = test system: Mycobacterium avium; conditions: isolate MAV4; remark: listed apart in the source
[28] = test system: Mycobacterium avium; conditions: 104 mc'2 3; remark: listed apart in the source
[29] = test system: Mycobacterium avium; conditions: 104 mc'2 3; remark: listed apart in the source
[30] = test system: Mycobacterium avium; conditions: 104 mc'2 3; remark: listed apart in the source
[31] = test system: Mycolicibacterium smegmatis; experiment: Antimycobacterial activity against Mycobacterium smegmatis str. MC2 155 assessed as reduction in bacterial viability incubated for 3 days by MTT assay; type: organism-based; conditions: 72 h
[32] = test system: Mycobacterium avium; conditions: 104 mc'2 3; remark: listed apart in the source
[33] = test system: Mycobacterium avium subsp. avium ATCC 25291; remark: listed apart in the source
[34] = test system: Mycobacterium avium; conditions: isolate MAV3; remark: listed apart in the source
[35] = test system: Mycobacterium avium; conditions: isolate MAV1; remark: listed apart in the source
[36] = test system: Mycobacterium avium; conditions: isolate MAV2; remark: listed apart in the source
[37] = test system: Mycobacterium avium; conditions: isolate MAV1; remark: listed apart in the source
[38] = test system: Mycobacterium avium; conditions: 104 mc'2 3; remark: listed apart in the source
[39] = test system: Mycobacterium avium; conditions: isolate MAV2; remark: listed apart in the source
[40] = test system: Mycobacterium avium; experiment: Antimycobacterial activity against Mycobacterium avium ATCC 25291 assessed as reduction in bacterial viability incubated for 3 days by MTT assay; type: organism-based; conditions: mycobacterium avium subsp. avium atcc 25291, 72 h
[41] = test system: Mycobacterium avium subsp. avium ATCC 25291; remark: listed apart in the source
Description: Inhibition of multidrug resistance efflux pump in Mycobacterium avium ATCC 25291 assessed as potentiation of clarithromycin -induced antibacterial activity by measuring clarithromycin MIC at 1/2 MIC incubated for 3 days by MTT assay

[42] = test system: Mycobacterium avium; conditions: 104 mc'2 4; remark: listed apart in the source
[43] = Safety index, ratio of MTC for test compound to MTC for chlorpromazine for cytotoxicity in human monocyte-derived macrophages; type: cell-based, Macrophage cell line

CSc1ccc2c(c1)N(CCC1CCCCN1C)c1ccccc1S2 (stereo not given) [THIORIDAZINE]
MIC [1]: > 512 µg/mL
MIC [2]: 12.5 µg/mL (≈ 33.7 µM)
MIC [3]: 4 µg/mL (≈ 10.8 µM)
MIC [4]: 4 µg/mL (≈ 10.8 µM)
MIC [5]: 12.5 µg/mL (≈ 33.7 µM)
MIC [6]: 128 µg/mL (≈ 345 µM)
MIC [7]: 32 µg/mL (≈ 86.3 µM)
MIC [8]: < 0.031 µg/mL
MIC [9]: 30 µg/mL (≈ 81 µM)
MIC [10]: 16 µg/mL (≈ 43.2 µM)
MIC [11]: 4 µg/mL (≈ 10.8 µM)
MIC [12]: > 512 µg/mL
MIC [13]: 16 µg/mL (≈ 43.2 µM)
MIC [14]: 32 µg/mL (≈ 86.3 µM)
MIC [15]: > 512 µg/mL
MIC [16]: 12.5 µg/mL (≈ 33.7 µM)
MIC [17]: 256 µg/mL (≈ 691 µM)
MIC [18]: 0.5 µg/mL (≈ 1.35 µM)
MIC [19]: 128 µg/mL (≈ 345 µM)
MIC [20]: 1 µg/mL (≈ 2.7 µM)
MIC [21]: 8 µg/mL (≈ 21.6 µM)
MIC [22]: 0.25 µg/mL (≈ 0.675 µM)
MIC [23]: 6.25 µg/mL (≈ 16.9 µM)
MIC [24]: 25 µg/mL (≈ 67.5 µM)
MIC [25]: 256 µg/mL (≈ 691 µM)
MIC [26]: 128 µg/mL (≈ 345 µM)
MIC [27]: 4 µg/mL (≈ 10.8 µM)
MIC [28]: 1.56 µg/mL (≈ 4.21 µM)
MIC [29]: > 512 µg/mL
MIC [30]: 4 µg/mL (≈ 10.8 µM)
MIC [31]: 30 µg/mL (≈ 81 µM)
MIC [32]: < 4 µg/mL
MIC [33]: 32 µg/mL (≈ 86.3 µM)
MIC [34]: 16 µg/mL (≈ 43.2 µM)
MIC [35]: < 0.195 µg/mL
MIC [36]: 12.5 µg/mL (≈ 33.7 µM)
MIC [37]: 0.78 µg/mL (≈ 2.1 µM)
MIC [38]: > 512 µg/mL
MIC [39]: 0.25 µg/mL (≈ 0.675 µM)
MIC [40]: 30 µg/mL (≈ 81 µM)
MIC [41]: 1 µg/mL (≈ 2.7 µM)
MIC [42]: 0.25 µg/mL (≈ 0.675 µM)

CCCOc1ccc(-c2cn(CCN(CC)CC)c3ccccc3c2=O)cc1
MIC [1]: 512 µg/mL (≈ 1350 µM)
MIC [2]: 12.5 µg/mL (≈ 33 µM)
MIC [3]: 4 µg/mL (≈ 10.6 µM)
MIC [4]: 32 µg/mL (≈ 84.5 µM)
MIC [5]: 6.25 µg/mL (≈ 16.5 µM)
MIC [6]: 16 µg/mL (≈ 42.3 µM)
MIC [7]: 128 µg/mL (≈ 338 µM)
MIC [8]: 0.5 µg/mL (≈ 1.32 µM)
MIC [9]: 256 µg/mL (≈ 676 µM)
MIC [10]: 16 µg/mL (≈ 42.3 µM)
MIC [11]: 8 µg/mL (≈ 21.1 µM)
MIC [12]: 512 µg/mL (≈ 1350 µM)
MIC [13]: 16 µg/mL (≈ 42.3 µM)
MIC [14]: 64 µg/mL (≈ 169 µM)
MIC [15]: 512 µg/mL (≈ 1350 µM)
MIC [16]: 6.25 µg/mL (≈ 16.5 µM)
MIC [17]: 256 µg/mL (≈ 676 µM)
MIC [18]: 1 µg/mL (≈ 2.64 µM)
MIC [19]: 64 µg/mL (≈ 169 µM)
MIC [20]: 2 µg/mL (≈ 5.28 µM)
MIC [21]: 8 µg/mL (≈ 21.1 µM)
MIC [22]: 2 µg/mL (≈ 5.28 µM)
MIC [23]: 25 µg/mL (≈ 66 µM)
selectivity ratio [43]: 2 to 4
MIC [24]: 12.5 µg/mL (≈ 33 µM)
MIC [25]: 64 µg/mL (≈ 169 µM)
MIC [26]: 256 µg/mL (≈ 676 µM)
MIC [27]: 2 µg/mL (≈ 5.28 µM)
MIC [28]: 3.12 µg/mL (≈ 8.26 µM)
MIC [29]: 512 µg/mL (≈ 1350 µM)
MIC [30]: 4 µg/mL (≈ 10.6 µM)
MIC [31]: 256 µg/mL (≈ 676 µM)
MIC [32]: 256 µg/mL (≈ 676 µM)
MIC [33]: 32 µg/mL (≈ 84.5 µM)
MIC [34]: 16 µg/mL (≈ 42.3 µM)
MIC [35]: 3.12 µg/mL (≈ 8.26 µM)
MIC [36]: 6.25 µg/mL (≈ 16.5 µM)
MIC [37]: 6.25 µg/mL (≈ 16.5 µM)
MIC [38]: 512 µg/mL (≈ 1350 µM)
MIC [39]: 0.5 µg/mL (≈ 1.32 µM)
MIC [40]: 256 µg/mL (≈ 676 µM)
MIC [41]: 8 µg/mL (≈ 21.1 µM)
MIC [42]: 4 µg/mL (≈ 10.6 µM)

CN(C)CCCN1c2ccccc2Sc2ccc(Cl)cc21 [CHLORPROMAZINE]
MIC [1]: > 512 µg/mL
MIC [2]: 12.5 µg/mL (≈ 39.2 µM)
MIC [3]: 1 µg/mL (≈ 3.14 µM)
MIC [4]: 4 µg/mL (≈ 12.5 µM)
MIC [5]: 6.25 µg/mL (≈ 19.6 µM)
MIC [6]: > 512 µg/mL
MIC [7]: 16 µg/mL (≈ 50.2 µM)
MIC [8]: < 0.031 µg/mL
MIC [9]: 30 µg/mL (≈ 94.1 µM)
MIC [10]: 44 µg/mL (≈ 138 µM)
MIC [11]: < 0.5 µg/mL
MIC [12]: > 512 µg/mL
MIC [13]: 8 µg/mL (≈ 25.1 µM)
MIC [14]: < 0.5 µg/mL
MIC [15]: > 512 µg/mL
MIC [16]: 6.25 µg/mL (≈ 19.6 µM)
MIC [17]: 512 µg/mL (≈ 1610 µM)
MIC [18]: 1 µg/mL (≈ 3.14 µM)
MIC [19]: 128 µg/mL (≈ 401 µM)
MIC [20]: 2 µg/mL (≈ 6.27 µM)
MIC [21]: 8 µg/mL (≈ 25.1 µM)
MIC [22]: 4 µg/mL (≈ 12.5 µM)
MIC [23]: < 0.39 µg/mL
MIC [24]: 12.5 µg/mL (≈ 39.2 µM)
MIC [25]: > 512 µg/mL
MIC [26]: 128 µg/mL (≈ 401 µM)
MIC [27]: 2 µg/mL (≈ 6.27 µM)
MIC [28]: 0.78 µg/mL (≈ 2.45 µM)
MIC [29]: > 512 µg/mL
MIC [30]: 4 µg/mL (≈ 12.5 µM)
MIC [31]: 60 µg/mL (≈ 188 µM)
MIC [32]: < 4 µg/mL
MIC [33]: 16 µg/mL (≈ 50.2 µM)
MIC [34]: 8 µg/mL (≈ 25.1 µM)
MIC [35]: < 0.195 µg/mL
MIC [36]: 12.5 µg/mL (≈ 39.2 µM)
MIC [37]: 1.56 µg/mL (≈ 4.89 µM)
MIC [38]: > 512 µg/mL
MIC [39]: 2 µg/mL (≈ 6.27 µM)
MIC [40]: 30 µg/mL (≈ 94.1 µM)
MIC [41]: < 0.125 µg/mL
MIC [42]: 1 µg/mL (≈ 3.14 µM)

CCCOc1ccc(-c2cn(CCN3CCCCCC3)c3ccccc3c2=O)cc1
MIC [1]: 32 µg/mL (≈ 79.1 µM)
MIC [2]: 12.5 µg/mL (≈ 30.9 µM)
MIC [3]: 4 µg/mL (≈ 9.89 µM)
MIC [4]: 4 µg/mL (≈ 9.89 µM)
MIC [5]: 1.56 µg/mL (≈ 3.86 µM)
MIC [6]: < 4 µg/mL
MIC [7]: 16 µg/mL (≈ 39.5 µM)
MIC [8]: < 0.125 µg/mL
MIC [9]: 256 µg/mL (≈ 633 µM)
MIC [10]: 8 µg/mL (≈ 19.8 µM)
MIC [11]: < 0.5 µg/mL
MIC [12]: 32 µg/mL (≈ 79.1 µM)
MIC [13]: 8 µg/mL (≈ 19.8 µM)
MIC [14]: < 0.5 µg/mL
MIC [15]: 32 µg/mL (≈ 79.1 µM)
MIC [16]: 0.78 µg/mL (≈ 1.93 µM)
MIC [17]: < 4 µg/mL
MIC [18]: 2 µg/mL (≈ 4.94 µM)
MIC [19]: 16 µg/mL (≈ 39.5 µM)
MIC [20]: 2 µg/mL (≈ 4.94 µM)
MIC [21]: 4 µg/mL (≈ 9.89 µM)
MIC [22]: 2 µg/mL (≈ 4.94 µM)
MIC [23]: < 0.39 µg/mL
selectivity ratio [43]: 2 to 4
MIC [24]: 3.12 µg/mL (≈ 7.72 µM)
MIC [25]: < 4 µg/mL
MIC [26]: 32 µg/mL (≈ 79.1 µM)
MIC [27]: < 0.25 µg/mL
MIC [28]: < 0.195 µg/mL
MIC [29]: < 64 µg/mL
MIC [30]: 2 µg/mL (≈ 4.94 µM)
MIC [31]: 128 µg/mL (≈ 316 µM)
MIC [32]: < 4 µg/mL
MIC [33]: 8 µg/mL (≈ 19.8 µM)
MIC [34]: 16 µg/mL (≈ 39.5 µM)
MIC [35]: < 0.195 µg/mL
MIC [36]: 3.12 µg/mL (≈ 7.72 µM)
MIC [37]: 1.56 µg/mL (≈ 3.86 µM)
MIC [38]: 128 µg/mL (≈ 316 µM)
MIC [39]: 1 µg/mL (≈ 2.47 µM)
MIC [40]: 256 µg/mL (≈ 633 µM)
MIC [41]: < 0.0625 µg/mL
MIC [42]: < 0.125 µg/mL
